pIC50: −log10 of the molar value.
Target: Voltage-gated inwardly rectifying potassium channel KCNH2 (Homo sapiens, UniProt Q12809)
Assay: hERG Inhibition Assay: Compounds were solubilised to 100 mM in DMSO before dilution in HBPS to 300 μM. 6-Point concentration-response curves were generated using 3.16-fold serial dilutions from the top test concentration. Procedure: Electrophysiological recordings were made from a Chinese Hamster Ovary cell line stably expressing the full-length hERG potassium channel. Single cell ionic currents were measured in whole-cell patch clamp configuration at room temperature (21-23° C.) using the QPatch HTX platform (Sophion). Intracellular solution contained (mM): 120 KF, 20 KCl, 10 EGTA, 10 HEPES and was buffered to pH 7.3. The extracellular solution (HEPES-buffered physiological saline, HBPS) contained (mM): 145 NaCl, 4 KCl, 2 CaCl2, 1 MgCl2, 10 HEPES, 10 glucose, buffered to pH7.4. Cells were clamped at a holding potential of −80 mV. Cells were stepped to +20 mV for 2 s then −40 mV for 3s before returning to the holding potential. This sweep was repeated 10 times at 10 s intervals. hERG currents were measured from the tail step and referenced to the holding current.

Sequence of Voltage-gated inwardly rectifying potassium channel KCNH2 (Q12809 whole entry): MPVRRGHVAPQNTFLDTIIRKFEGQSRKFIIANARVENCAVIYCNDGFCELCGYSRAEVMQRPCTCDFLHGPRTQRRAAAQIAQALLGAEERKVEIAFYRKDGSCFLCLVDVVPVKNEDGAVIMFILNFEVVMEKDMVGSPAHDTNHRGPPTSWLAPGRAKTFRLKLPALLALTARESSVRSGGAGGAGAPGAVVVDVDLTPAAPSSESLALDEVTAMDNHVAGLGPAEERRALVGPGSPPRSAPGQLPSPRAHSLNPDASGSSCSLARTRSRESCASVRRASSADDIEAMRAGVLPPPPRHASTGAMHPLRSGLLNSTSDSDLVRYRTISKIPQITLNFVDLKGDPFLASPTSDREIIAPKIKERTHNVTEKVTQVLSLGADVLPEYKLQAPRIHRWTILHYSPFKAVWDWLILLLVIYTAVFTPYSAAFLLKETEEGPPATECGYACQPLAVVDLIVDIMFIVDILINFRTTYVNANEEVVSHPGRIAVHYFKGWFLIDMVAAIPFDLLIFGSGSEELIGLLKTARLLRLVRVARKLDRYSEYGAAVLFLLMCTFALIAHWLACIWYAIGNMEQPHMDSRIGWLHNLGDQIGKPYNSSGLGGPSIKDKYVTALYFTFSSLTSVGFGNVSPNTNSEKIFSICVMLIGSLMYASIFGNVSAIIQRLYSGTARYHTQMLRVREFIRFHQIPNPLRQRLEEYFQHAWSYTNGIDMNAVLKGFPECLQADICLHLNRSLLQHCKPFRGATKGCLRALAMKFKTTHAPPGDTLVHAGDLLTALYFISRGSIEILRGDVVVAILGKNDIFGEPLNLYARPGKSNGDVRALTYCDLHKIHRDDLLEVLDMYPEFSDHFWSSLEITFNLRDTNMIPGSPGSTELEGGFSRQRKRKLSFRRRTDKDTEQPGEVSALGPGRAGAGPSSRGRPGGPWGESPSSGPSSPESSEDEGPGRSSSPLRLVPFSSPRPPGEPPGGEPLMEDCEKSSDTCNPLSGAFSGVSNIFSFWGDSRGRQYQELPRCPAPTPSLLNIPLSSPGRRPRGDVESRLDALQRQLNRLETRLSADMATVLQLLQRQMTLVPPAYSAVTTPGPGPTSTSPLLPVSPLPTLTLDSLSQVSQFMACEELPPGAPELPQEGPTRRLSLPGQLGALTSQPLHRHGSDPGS

Compound `Cn1c(=O)cnc2cc(F)c(OCCNC[C@H]3CN(c4cnc5c(n4)NC(=O)CO5)C(=O)O3)nc21` has a pIC50 of 4.01.
